In US20120165331A1, “Di/tri-aza-spiro-C9-C11alkanes” (priority 2010, published 2012):

Columns and labels:
[1] = biological target: T1, human orexin 2 receptor (Homo sapiens, UniProt O43614); experiment: Calcium accumulation in cells (FLIPR), antagonism of orexin A, human orexin 2 receptor; format: cell-based; settings: for Ki: calcium accumulation, antagonism of orexin A, Cheng-Prusoff corrected, read-out: FLIPR hOx2R Ki; for inhibition at 10 µM: measured at a concentration of 10 μM of compound, read-out: FLIPR hOx2R % inhibition
T1 construct: expressed in transfected cells
T1 sequence (O43614 1-444): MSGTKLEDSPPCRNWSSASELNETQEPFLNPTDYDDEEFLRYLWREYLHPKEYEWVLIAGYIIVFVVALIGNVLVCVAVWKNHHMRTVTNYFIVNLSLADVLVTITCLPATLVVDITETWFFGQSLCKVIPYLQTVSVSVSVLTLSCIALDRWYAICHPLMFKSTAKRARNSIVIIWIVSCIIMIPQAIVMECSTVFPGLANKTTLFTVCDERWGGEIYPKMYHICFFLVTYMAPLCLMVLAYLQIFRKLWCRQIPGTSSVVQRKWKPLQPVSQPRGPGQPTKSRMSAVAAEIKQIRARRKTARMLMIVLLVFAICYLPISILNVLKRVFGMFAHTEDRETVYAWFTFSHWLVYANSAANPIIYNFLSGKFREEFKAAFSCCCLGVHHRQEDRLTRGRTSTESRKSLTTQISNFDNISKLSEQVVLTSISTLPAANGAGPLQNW
Procedure: (§1) Calcium Accumulation in Cells (FLIPR):
(§2) Cells expressing human orexin 1 or human orexin 2 receptors, were seeded at 8,000 cells/well in 384 well black-walled clear bottom, poly-D-lysine coated plates. After 24 h, the medium was removed and cells were washed once with phosphate buffered saline and serum-deprived overnight in assay buffer (130 mM NaCl, 5.4 mM KCl, 1.8 mM CaCl2, 0.8 mM MgSO4, 0.9 mM NaH2PO4, 25 mM glucose, 20 mM HEPES, pH 7.4) containing bovine serum albumin (1% w/v).
(§3) On the day of the experiment, the cells seeded in black plates were treated with assay buffer containing the Ca^2+ sensitive fluorescent dye Fluo-4-AM (2 μM), and probenecid (0.1 mM). After 1 h plates were washed twice with, and resuspended in, assay buffer containing probenecid (0.1 mM) using a multi plate washer. The plates were placed into a FLIPR II (Fluorometric Imaging Plate Reader, Molecular Devices, Sunnyvale, Calif., USA) and baseline fluorescence (fluorescence light units, FLU) was measured (5 measurements, 2 S each; laser excitation 488 nm at 0.6-1 W, CCD camera exposure 0.4 s) before addition of buffer alone (basal) or containing test compounds (either compound of formula I alone, agonist alone or agonist in the presence of various concentrations of compounds of formula I). Fluorescence measurements were then continued every 1 S for 120 S followed by every 4 S for 240 S.
(§4) The measurements were typically made in two sequences:
(§5) Compounds of formula I were tested usually in a concentration range from 10^−9 M to 10^−5 M.
(§6) In the second round, performed one hour later (to allow for equilibration), Orexin A was tested either in the absence (calibration curves, Orexin A agonist controls) or in the presence of compounds of formula Ito determine antagonism.
(§7) Inhibition data is expressed in Table 1 as Kd [μM], converted by the Cheng and Prusoff correction (Kd=IC50/1+(L/EC50)), where IC50 is the 50% inhibition value determined in concentration response inhibition curves, EC50 is the half maximal activation concentration determined for orexin A in concentration response curves and L is the concentration of orexin A used in inhibition experiments performed in with a submaximal concentration of orexin A in the presence of up to 8 increasing concentrations of compound of formula I. Inhibition data is also expressed in Table 1 as % inhibition value measured at a concentration of 10 μM of selected compounds of formula I.

[2] = biological target: T2, human orexin 1 receptor (Homo sapiens, UniProt O43613); experiment: Calcium accumulation in cells (FLIPR), antagonism of orexin A, human orexin 1 receptor; format: cell-based; settings: for inhibition at 10 µM: measured at a concentration of 10 μM of compound, read-out: FLIPR hOx1R % inhibition; for Ki: calcium accumulation, antagonism of orexin A, Cheng-Prusoff corrected, read-out: FLIPR hOx1R Ki
T2 construct: expressed in transfected cells
T2 sequence (O43613 1-425): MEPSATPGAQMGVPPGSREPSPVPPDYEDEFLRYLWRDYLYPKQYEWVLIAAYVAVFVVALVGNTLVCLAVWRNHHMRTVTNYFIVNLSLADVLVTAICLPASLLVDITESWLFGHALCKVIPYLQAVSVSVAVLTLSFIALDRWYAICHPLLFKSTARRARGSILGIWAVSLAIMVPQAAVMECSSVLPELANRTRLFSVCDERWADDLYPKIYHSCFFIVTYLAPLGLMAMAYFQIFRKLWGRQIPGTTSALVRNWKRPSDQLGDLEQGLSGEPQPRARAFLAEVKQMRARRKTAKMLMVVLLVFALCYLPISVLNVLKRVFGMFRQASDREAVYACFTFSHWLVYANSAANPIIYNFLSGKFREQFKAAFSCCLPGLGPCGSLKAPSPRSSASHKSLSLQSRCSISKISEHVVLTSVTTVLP
Procedure: as §1, §2, §3, §4, §5, §6, §7

Compound	Ki [1]	inhibition at 10 µM [2]	Ki [2]	inhibition at 10 µM [1]
COCc1cccc(-c2oc(C)nc2CN2CCNC3(CCN(c4nc(C)cc(C#N)n4)CC3)C2=O)c1 [Example 1.31, 2-(4-((5-(3-(Methoxymethyl)phenyl)-2-methyl-oxazol-4-yl)methyl)-5-oxo-1,4,9-triazaspiro[5.5]undecan-9-yl)-6-methylpyrimidine-4-carbonitrile]	64 nM	38%	–	–
COCc1cccc(-c2oc(C)nc2CN2CCNC3(CCN(c4nc(C)cc(OC)n4)CC3)C2=O)c1 [Example 1.32, 9-(4-Methoxy-6-methylpyrimidin-2-yl)-4-((5-(3-(methoxymethyl)phenyl)-2-methyl-oxazol-4-yl)methyl)-1,4,9-triazaspiro[5.5] undecan-5-one]	84 nM	–	2840 nM	–
COc1ccc(-c2cn(C)nc2CN2CCNC3(CCN(c4nc(C)cc(C)n4)CC3)C2=O)cc1OC [Example 1.35, 4-((4-(3,4-Dimethoxyphenyl)-1-methyl-1H-pyrazol-3-yl)methyl)-9-(4,6-dimethylpyrimidin-2-yl)-1,4,9-triazaspiro[5.5] undecan-5-one]	400 nM	25%	–	–
COc1ccc(-c2cn(C)nc2CN2CCNC3(CCN(c4nc(C)cc(C)n4)CC3)C2=O)cc1 [Example 1.36, 9-(4,6-Dimethyl-pyrimidin-2-yl)-4-((4-(4-methoxyphenyl)-1-methyl-1H-pyrazol-3-yl)methyl)-1,4,9-triazaspiro[5.5] undecan-5-one]	187 nM	41%	–	–
COc1cc(OC)cc(-c2cn(C)nc2CN2CCNC3(CCN(c4nc(C)cc(C)n4)CC3)C2=O)c1 [Example 1.37, 4-((4-(3,5-Dimethoxyphenyl)-1-methyl-1H-pyrazol-3-yl)methyl)-9-(4,6-dimethylpyrimidin-2-yl)-1,4,9-triazaspiro[5.5] undecan-5-one]	2330 nM	40%	–	–
Cc1cccc(-c2cn(C)nc2CN2CCNC3(CCN(c4nc(C)cc(C)n4)CC3)C2=O)c1 [Example 1.38, 9-(4,6-Dimethyl-pyrimidin-2-yl)-4-((1-methyl-4-(m-tolyl)-1H-pyrazol-3-yl)methyl)-1,4,9-triazaspiro[5.5] undecan-5-one]	204 nM	29%	–	–
Cc1cc(C)nc(N2CCC3(CC2)NCCN(Cc2nn(C)cc2-c2cccc(F)c2)C3=O)n1 [Example 1.43, 9-(4,6-Dimethyl-pyrimidin-2-yl)-4-((4-(3-fluorophenyl)-1-methyl-1H-pyrazol-3-yl)methyl)-1,4,9-triazaspiro[5.5] undecan-5-one]	447 nM	27%	–	–
Cc1cc(C)nc(N2CCC3(CC2)NCCN(Cc2nn(C)cc2-c2cccc(C#N)c2)C3=O)n1 [Example 1.44, 3-(3-((9-(4,6-Dimethylpyrimidin-2-yl)-5-oxo-1,4,9-triazaspiro[5.5]undecan-4-yl)methyl)-1-methyl-1H-pyrazol-4-yl)benzonitrile]	1490 nM	12%	–	–
Cc1cc(C)nc(N2CCC3(CC2)NCCN(Cc2nn(C)cc2-c2ccc(C#N)cc2)C3=O)n1 [Example 1.45, 4-(3-((9-(4,6-Dimethylpyrimidin-2-yl)-5-oxo-1,4,9-triazaspiro[5.5]undecan-4-yl)methyl)-1-methyl-1H-pyrazol-4-yl)benzonitrile]	–	21%	–	45%
CNC(=O)c1cccc(-c2cn(C)nc2CN2CCNC3(CCN(c4nc(C)cc(C)n4)CC3)C2=O)c1 [Example 1.49, 3-(3-((9-(4,6-Dimethylpyrimidin-2-yl)-5-oxo-1,4,9-triazaspiro[5.5]undecan-4-yl)methyl)-1-methyl-1H-pyrazol-4-yl)-N-methylbenzamide]	–	20%	–	38%
Cc1cc(C)nc(N2CCC3(CC2)NCCN(Cc2n[nH]c4ccccc24)C3=O)n1 [Example 1.50, 4-((1H-Indazol-3-yl)methyl)-9-(4,6-dimethylpyrimidin-2-yl)-1,4,9-triazaspiro[5.5] undecan-5-one]	86 nM	–	1180 nM	–
COCc1ccc(-c2cn(C)nc2CN2CCNC3(CCN(c4nc(C)cc(C)n4)CC3)C2=O)cc1 [Example 1.51, 9-(4,6-Dimethyl-pyrimidin-2-yl)-4-((4-(4-(methoxymethyl)phenyl)-1-methyl-1H-pyrazol-3-yl)methyl)-1,4,9-triazaspiro[5.5] undecan-5-one]	1240 nM	< 10%	–	–
COc1cccc(-c2cn(C)nc2CN2CCNC3(CCN(c4nc(C)cc(C)n4)CC3)C2=O)n1 [Example 1.54, 9-(4,6-Dimethyl-pyrimidin-2-yl)-4-((4-(6-methoxypyridin-2-yl)-1-methyl-1H-pyrazol-3-yl)methyl)-1,4,9-triazaspiro[5.5] undecan-5-one]	–	15%	–	32%
Cc1cc(C)nc(N2CCC3(CC2)NCCN(Cc2nn(C)cc2-c2cccc(-n4cccn4)c2)C3=O)n1 [Example 1.57, 4-((4-(3-(1H-Pyrazol-1-yl)phenyl)-1-methyl-1H-pyrazol-3-yl)methyl)-9-(4,6-dimethyl-pyrimidin-2-yl)-1,4,9-triazaspiro[5.5] undecan-5-one]	175 nM	–	2670 nM	–
Cc1cc(C)nc(N2CCC3(CC2)NCCN(Cc2nn(C)cc2-c2cccc(N(C)C)c2)C3=O)n1 [Example 1.58]	458 nM	17%	–	–
Cc1cc(C)nc(N2CCC3(CC2)NCCN(Cc2nn(C)cc2-c2cccc(-c4nnc(C)o4)c2)C3=O)n1 [Example 1.59, 9-(4,6-Dimethyl-pyrimidin-2-yl)-4-((1-methyl-4-(3-(5-methyl-1,3,4-oxadiazol-2-yl)phenyl)-1H-pyrazol-3-yl)methyl)-1,4,9-triazaspiro[5.5] undecan-5-one]	252 nM	37%	–	–
Cc1cc(C)nc(N2CCC3(CC2)NCCN(Cc2nn(C)cc2-c2cccc(-n4nc(C)cc4C)c2)C3=O)n1 [Example 1.60, 4-((4-(3-(3,5-Dimethyl-1H-pyrazol-1-yl)phenyl)-1-methyl-1H-pyrazol-3-yl)methyl)-9-(4,6-dimethylpyrimidin-2-yl)-1,4,9-triazaspiro[5.5] undecan-5-one]	–	13%	–	34%
Cc1cc(C)nc(N2CCC3(CC2)NCCN(Cc2nn(C)cc2-c2ccc4c(c2)OCCO4)C3=O)n1 [Example 1.61, 4-((4-(2,3-Dihydro-benzo[b][1,4]dioxin-6-yl)-1-methyl-1H-pyrazol-3-yl)methyl)-9-(4,6-dimethylpyrimidin-2-yl)-1,4,9-triazaspiro[5.5] undecan-5-one]	1.8 nM	–	836 nM	–
Cc1cc(C)nc(N2CCC3(CC2)NCCN(Cc2ccccc2-c2ncc(C)o2)C3=O)n1 [Example 1.64, 9-(4,6-dimethyl-pyrimidin-2-yl)-4-(2-(5-methyloxazol-2-yl)benzyl)-1,4,9-triazaspiro[5.5] undecan-5-one]	423 nM	32%	–	–
